Test results reported in ChEMBL document CHEMBL1201862, “PubChem BioAssay data set” (2004).
Calls of active or inactive are those of the source.

Experiments:
Aminopeptidase N = biological target: T1, Aminopeptidase N (Plasmodium falciparum FcB1/Columbia, UniProt O96935); assay: malaria alanyl aminopeptidase activity blockers – biochemical, fluorogenic H-Leu-NHMec substrate, 1536-well (AID 1445); parameters: species or system Plasmodium falciparum 3D7, 3D7
T1 sequence (O96935 whole entry): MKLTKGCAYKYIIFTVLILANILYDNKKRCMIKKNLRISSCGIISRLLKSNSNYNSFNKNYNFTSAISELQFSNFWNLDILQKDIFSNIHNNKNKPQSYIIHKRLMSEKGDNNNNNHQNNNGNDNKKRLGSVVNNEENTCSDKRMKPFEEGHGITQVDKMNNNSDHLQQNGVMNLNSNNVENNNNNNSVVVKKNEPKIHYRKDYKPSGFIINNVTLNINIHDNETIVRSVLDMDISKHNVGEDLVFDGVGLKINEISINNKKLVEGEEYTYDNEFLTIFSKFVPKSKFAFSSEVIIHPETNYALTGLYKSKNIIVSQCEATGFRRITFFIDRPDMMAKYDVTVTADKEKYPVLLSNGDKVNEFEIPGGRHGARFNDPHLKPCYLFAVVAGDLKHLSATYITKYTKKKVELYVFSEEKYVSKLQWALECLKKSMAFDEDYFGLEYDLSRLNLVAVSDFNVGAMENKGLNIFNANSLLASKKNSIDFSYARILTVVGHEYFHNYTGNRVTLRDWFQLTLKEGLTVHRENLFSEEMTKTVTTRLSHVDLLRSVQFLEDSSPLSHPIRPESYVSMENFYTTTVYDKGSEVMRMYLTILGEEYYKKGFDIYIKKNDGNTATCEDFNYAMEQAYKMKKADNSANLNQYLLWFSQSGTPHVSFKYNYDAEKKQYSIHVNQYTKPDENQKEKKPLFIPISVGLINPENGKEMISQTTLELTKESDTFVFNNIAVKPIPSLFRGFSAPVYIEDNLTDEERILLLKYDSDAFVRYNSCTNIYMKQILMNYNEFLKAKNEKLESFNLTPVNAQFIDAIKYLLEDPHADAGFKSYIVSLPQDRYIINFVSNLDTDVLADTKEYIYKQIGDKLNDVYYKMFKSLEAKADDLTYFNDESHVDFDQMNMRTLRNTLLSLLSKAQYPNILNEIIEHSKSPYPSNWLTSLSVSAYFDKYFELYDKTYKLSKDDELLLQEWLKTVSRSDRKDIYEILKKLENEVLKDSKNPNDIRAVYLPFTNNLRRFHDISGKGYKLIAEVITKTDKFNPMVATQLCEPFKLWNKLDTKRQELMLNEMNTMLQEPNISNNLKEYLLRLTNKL

Estrogen receptor = biological target: T2, Estrogen receptor (Homo sapiens, UniProt P03372);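 note: potency for inhibiting coactivator peptide recruitment to the receptor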
T2 sequence (P03372 whole entry): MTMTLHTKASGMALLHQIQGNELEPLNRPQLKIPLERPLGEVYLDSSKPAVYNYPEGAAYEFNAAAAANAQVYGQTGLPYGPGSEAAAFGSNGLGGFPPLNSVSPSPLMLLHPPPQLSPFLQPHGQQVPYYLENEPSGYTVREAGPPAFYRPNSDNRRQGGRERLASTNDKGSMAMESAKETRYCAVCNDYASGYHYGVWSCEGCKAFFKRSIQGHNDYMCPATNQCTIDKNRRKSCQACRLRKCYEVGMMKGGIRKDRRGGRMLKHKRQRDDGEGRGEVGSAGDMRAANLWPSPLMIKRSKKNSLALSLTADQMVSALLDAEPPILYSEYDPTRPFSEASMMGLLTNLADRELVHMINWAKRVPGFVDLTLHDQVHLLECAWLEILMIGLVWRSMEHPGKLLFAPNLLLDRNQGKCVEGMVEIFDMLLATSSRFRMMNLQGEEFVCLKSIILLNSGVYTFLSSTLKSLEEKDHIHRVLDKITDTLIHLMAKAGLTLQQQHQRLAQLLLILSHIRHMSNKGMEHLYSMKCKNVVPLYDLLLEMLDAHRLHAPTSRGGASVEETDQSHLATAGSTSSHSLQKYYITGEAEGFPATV

[1] = biological target: T3, Trace amine-associated receptor 1 (Homo sapiens, UniProt Q96RJ0); assay: Counterscreen for agonists of the human trace amine associated receptor 1 (hTAAR1): Fluorescence-based cell-based high throughput dose response assay to identify hTAAR1 agonist that also desensitize TAAR1 receptor response.; assay type: functional
T3 sequence (Q96RJ0 whole entry): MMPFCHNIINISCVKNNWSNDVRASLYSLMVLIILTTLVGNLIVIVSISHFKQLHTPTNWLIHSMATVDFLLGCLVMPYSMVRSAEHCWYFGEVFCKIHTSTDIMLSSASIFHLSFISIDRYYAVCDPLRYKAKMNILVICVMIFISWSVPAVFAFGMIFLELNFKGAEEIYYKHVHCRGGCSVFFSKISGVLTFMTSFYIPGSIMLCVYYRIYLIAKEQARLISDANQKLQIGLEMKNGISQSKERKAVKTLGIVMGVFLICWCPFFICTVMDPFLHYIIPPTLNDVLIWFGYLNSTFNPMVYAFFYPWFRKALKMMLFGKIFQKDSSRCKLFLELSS

[2] = biological target: T3, Trace amine-associated receptor 1; assay: Fluorescence-based cell-based high throughput dose response assay to identify agonists of the human trace amine associated receptor 1 (TAAR1).; assay type: functional
cells [3] = assay type: functional, cell-based
cells [4] = assay type: functional, cell-based; remark: listed apart in the source
Cytochrome P450 2C19 = Cytochrome P450 2C19 (Homo sapiens, UniProt P33261); assay: qHTS Assay for Inhibitors and Substrates of Cytochrome P450 2C19. [Related pubchem assays: 410 ]; assay type: ADME; settings: read-out: Potency
[5] = biological target: DNA dC->dU-editing enzyme APOBEC-3G (Homo sapiens, UniProt Q9HC16); assay: Dose Response confirmation of small molecule APOBEC3G DNA Deaminase Inhibitors via a fluorescence-based single-stranded DNA deaminase assay. [Related pubchem assays (depositor defined):AID493012, AID493028]; assay type: functional
Chain of DNA dC->dU-editing enzyme APOBEC-3G (Q9HC16 whole entry): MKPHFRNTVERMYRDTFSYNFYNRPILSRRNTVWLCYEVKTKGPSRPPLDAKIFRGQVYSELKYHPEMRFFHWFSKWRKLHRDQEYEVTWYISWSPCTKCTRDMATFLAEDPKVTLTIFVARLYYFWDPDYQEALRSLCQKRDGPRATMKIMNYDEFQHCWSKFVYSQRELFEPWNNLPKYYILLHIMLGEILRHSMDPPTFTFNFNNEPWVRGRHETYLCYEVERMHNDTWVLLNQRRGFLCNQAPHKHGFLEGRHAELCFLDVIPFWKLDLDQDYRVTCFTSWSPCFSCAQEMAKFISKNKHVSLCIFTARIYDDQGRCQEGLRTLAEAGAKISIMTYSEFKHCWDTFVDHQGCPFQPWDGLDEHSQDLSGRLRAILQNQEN

Fatty acid synthase [6] = biological target: T4, Fatty acid synthase (Homo sapiens, UniProt P49327); assay: inhibition of human FAS-TE enzyme activity – biochemical, kinetic fluorescence intensity, dose response (AID 624326); assay type: functional;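 note: rate of fluorescence rise from hydrolysis of a fluorogenic O-methyl fluorescein ester substrate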
Fatty acid synthase [7] = biological target: T4, Fatty acid synthase; assay: inhibition of human FAS-TE enzyme activity – biochemical, endpoint fluorescence intensity, uHTS hits, dose response (AID 624327); assay type: functional;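 note: fluorescence from hydrolysis of an O-methyl fluorescein acyl ester substrate by the enzyme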
cells [8] = assay: cells
[9] = viability of uninfected HEp-2 cells – cell-based, HTS, cytotoxicity control for RSV inhibitor project, dose response (AID 2410); assay type: functional; settings: human respiratory syncytial virus
[10] = NIH-3T3 fibroblast cytotoxicity, dose response, cytotoxicity control, cell-based, fluorescence, Alamar Blue, secondary assay (AID 2327); assay type: functional;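 note: NIH-3T3 mouse fibroblasts cultured with fluconazole at 8 µg/mL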
[11] = fluconazole-exposed Candida albicans growth modulators – fluorescence, retest, confirmation (AID 2467); assay type: functional, cell-based
[12] = biological target: T5, Acyl-homoserine lactone acylase PvdQ (Pseudomonas aeruginosa (strain LESB58), UniProt Q9I194); assay: PvdQ acylase enzyme activity blockers – biochemical, fluorescence, plate reader and imaging, cherry-picks, dose response (AID 493231)
T5 sequence (Q9I194 whole entry): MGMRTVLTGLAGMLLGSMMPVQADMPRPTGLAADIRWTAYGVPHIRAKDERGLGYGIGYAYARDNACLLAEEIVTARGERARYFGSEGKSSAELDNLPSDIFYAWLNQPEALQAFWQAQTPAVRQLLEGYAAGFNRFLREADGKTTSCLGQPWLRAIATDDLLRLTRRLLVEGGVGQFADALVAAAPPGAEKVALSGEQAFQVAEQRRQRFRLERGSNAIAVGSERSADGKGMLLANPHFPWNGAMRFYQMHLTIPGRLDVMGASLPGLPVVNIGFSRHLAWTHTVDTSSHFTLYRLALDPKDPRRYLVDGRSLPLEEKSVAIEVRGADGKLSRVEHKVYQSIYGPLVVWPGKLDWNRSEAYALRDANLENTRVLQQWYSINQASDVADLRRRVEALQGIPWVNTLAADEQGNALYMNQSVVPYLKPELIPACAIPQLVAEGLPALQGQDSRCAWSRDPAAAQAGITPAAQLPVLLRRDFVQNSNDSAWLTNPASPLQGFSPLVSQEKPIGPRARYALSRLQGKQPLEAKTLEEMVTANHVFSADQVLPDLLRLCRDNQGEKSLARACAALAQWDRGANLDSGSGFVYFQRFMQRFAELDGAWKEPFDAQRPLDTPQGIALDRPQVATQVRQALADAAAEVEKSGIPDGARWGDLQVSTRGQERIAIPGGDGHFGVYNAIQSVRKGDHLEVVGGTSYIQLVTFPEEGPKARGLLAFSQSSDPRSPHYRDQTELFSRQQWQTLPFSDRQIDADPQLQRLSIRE

[13] = biological target: Voltage-dependent T-type calcium channel subunit alpha-1H (Homo sapiens, UniProt O95180); assay type: functional;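 note: channel activity triggered by adding a high calcium stimulation buffer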
Chain of Voltage-dependent T-type calcium channel subunit alpha-1H (O95180 whole entry): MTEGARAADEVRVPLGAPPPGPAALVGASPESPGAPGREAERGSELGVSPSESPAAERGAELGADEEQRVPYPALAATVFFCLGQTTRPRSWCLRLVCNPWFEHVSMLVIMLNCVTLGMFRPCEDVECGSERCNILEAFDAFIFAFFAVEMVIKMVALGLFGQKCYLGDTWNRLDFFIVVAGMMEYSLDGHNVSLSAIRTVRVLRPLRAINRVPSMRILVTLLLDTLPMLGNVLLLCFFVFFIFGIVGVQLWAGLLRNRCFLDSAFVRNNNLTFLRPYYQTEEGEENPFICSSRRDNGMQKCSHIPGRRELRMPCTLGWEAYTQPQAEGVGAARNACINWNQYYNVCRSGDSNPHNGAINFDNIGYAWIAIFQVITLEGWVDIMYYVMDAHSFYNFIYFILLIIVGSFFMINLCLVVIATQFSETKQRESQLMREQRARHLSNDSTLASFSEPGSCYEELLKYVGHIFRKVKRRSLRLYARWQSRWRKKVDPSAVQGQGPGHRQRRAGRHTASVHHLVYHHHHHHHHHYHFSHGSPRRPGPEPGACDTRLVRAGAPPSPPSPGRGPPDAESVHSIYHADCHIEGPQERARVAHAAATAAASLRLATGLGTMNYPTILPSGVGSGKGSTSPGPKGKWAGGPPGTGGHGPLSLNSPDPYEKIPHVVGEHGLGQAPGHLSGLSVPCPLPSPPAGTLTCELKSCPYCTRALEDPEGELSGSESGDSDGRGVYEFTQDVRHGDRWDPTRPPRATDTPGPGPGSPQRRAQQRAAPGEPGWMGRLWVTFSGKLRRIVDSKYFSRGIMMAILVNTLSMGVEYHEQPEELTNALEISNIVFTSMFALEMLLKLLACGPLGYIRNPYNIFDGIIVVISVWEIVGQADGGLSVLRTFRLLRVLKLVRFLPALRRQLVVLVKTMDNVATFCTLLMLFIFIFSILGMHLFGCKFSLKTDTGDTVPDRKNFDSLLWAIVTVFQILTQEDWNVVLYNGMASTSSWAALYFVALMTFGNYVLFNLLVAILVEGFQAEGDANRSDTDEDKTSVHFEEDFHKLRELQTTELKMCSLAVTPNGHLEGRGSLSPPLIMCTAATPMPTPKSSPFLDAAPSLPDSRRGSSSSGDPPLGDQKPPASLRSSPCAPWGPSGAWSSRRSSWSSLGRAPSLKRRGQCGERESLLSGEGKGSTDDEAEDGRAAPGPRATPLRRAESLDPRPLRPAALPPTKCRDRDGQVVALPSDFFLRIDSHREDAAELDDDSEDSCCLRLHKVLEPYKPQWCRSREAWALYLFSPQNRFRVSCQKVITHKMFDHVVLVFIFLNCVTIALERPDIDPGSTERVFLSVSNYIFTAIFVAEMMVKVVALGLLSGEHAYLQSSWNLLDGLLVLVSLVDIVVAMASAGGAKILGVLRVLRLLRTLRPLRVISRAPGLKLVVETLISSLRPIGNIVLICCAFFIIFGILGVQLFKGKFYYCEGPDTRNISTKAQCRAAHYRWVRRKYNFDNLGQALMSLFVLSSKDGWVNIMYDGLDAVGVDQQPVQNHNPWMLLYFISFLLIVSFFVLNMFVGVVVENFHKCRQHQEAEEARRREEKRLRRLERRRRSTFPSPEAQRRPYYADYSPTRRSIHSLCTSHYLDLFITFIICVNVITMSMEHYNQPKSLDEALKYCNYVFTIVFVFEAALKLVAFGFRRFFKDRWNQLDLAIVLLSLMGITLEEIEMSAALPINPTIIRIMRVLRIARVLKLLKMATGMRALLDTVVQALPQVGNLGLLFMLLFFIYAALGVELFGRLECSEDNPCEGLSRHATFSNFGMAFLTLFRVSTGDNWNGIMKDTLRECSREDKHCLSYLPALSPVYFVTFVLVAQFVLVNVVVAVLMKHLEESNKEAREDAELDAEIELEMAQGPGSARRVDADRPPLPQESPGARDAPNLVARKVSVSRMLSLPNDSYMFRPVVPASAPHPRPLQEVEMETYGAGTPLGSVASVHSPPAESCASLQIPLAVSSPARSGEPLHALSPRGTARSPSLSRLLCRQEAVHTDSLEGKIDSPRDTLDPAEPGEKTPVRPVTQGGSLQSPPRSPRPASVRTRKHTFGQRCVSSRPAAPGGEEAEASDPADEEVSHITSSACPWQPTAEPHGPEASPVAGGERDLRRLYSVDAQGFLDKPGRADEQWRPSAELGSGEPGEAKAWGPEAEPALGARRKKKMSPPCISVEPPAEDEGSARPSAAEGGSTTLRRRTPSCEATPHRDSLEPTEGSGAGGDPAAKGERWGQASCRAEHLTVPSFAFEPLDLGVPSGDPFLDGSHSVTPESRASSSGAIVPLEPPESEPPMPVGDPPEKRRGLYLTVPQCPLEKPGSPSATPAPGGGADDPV

[14] = biological target: Induced myeloid leukemia cell differentiation protein Mcl-1 (Homo sapiens, UniProt Q07820); assay type: functional
Chain of Induced myeloid leukemia cell differentiation protein Mcl-1 (Q07820 whole entry): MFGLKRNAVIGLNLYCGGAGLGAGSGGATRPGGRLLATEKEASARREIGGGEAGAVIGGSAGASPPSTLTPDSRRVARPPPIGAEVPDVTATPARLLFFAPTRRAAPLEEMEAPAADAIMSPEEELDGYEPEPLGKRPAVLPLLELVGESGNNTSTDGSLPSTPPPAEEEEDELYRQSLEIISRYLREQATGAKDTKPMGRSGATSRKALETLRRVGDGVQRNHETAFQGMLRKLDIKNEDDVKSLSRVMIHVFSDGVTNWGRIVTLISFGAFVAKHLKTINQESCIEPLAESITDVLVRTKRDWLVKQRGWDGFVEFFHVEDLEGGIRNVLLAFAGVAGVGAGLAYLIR

Large T antigen = Large T antigen (Simian virus 40, UniProt P03070); assay type: functional, Betapolyomavirus macacae;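 note: Confirmatory-stage PubChem screen for compounds that inhibit SV40 T antigen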
Chain of Large T antigen (P03070 whole entry): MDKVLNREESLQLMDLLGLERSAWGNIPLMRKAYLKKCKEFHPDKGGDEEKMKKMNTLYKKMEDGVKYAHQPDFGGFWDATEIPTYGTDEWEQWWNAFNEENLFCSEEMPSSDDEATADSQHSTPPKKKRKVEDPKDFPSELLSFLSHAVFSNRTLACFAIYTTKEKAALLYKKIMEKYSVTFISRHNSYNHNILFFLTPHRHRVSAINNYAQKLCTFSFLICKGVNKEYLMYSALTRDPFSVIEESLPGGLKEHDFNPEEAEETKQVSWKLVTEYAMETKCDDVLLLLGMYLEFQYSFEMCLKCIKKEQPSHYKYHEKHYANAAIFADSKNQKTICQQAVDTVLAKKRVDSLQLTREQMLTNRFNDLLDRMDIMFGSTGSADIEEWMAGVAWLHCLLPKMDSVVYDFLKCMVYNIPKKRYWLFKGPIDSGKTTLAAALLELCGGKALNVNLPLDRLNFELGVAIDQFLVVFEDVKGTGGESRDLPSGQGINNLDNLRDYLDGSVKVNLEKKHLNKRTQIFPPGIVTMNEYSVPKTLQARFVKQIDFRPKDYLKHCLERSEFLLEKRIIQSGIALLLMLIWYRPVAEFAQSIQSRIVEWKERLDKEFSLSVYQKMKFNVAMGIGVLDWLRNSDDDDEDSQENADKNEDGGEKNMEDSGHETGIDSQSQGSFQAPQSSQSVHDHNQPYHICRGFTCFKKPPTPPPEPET

Beta-galactosidase = Beta-galactosidase (Escherichia coli, UniProt Q8VNN2); assay: detection-enzyme interference by beta-gal modulators – biochemical, E. coli enzyme, set 3, artefact control for CCR6 antagonist project, dose response (AID 504712); assay type: functional
Chain of Beta-galactosidase (Q8VNN2 whole entry): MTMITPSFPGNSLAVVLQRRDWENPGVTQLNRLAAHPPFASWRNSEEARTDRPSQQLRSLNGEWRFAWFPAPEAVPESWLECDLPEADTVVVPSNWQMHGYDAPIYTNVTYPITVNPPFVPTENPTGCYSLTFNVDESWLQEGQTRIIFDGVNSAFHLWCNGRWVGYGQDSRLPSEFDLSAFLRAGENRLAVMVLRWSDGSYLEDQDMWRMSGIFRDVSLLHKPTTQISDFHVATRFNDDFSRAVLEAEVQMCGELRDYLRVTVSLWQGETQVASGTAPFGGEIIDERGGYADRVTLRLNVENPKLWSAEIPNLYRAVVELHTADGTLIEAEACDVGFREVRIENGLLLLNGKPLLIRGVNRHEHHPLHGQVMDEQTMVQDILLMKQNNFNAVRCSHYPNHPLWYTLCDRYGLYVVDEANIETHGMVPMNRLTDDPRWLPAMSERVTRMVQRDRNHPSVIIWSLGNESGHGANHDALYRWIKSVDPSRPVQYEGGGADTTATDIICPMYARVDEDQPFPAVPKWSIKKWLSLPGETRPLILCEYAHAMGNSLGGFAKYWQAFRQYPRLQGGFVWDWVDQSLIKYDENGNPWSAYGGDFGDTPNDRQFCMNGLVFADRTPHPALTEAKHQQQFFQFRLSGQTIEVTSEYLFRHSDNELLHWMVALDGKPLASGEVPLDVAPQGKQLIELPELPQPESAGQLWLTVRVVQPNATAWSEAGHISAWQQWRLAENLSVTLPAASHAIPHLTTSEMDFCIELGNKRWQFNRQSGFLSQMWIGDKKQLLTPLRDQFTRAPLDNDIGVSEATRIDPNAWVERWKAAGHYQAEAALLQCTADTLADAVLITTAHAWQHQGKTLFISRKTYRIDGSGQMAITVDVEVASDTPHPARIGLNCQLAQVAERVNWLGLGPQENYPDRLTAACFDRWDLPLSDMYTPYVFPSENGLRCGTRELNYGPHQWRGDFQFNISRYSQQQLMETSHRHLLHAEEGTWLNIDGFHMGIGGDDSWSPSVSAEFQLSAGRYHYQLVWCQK

For `O=C(O)c1cccc(Nc2nc(-c3cccnc3)nc3ccccc23)c1`, the IC50 (Aminopeptidase N) was 79.2 µM (active).
In the case of `CCn1c(SCC(=O)c2ccc(CNC(C)=O)o2)nnc1-c1cccs1`, the IC50 (Estrogen receptor) is reported as 42.7 µM (not active).
For `O=C(N[C@H](C(=O)N1CCC[C@H]1C(=O)NCCc1ccccc1Cl)c1ccccc1)c1ccccc1`, the IC50 [1] was 5.99 µM (active), the EC50 [2] was 3.78 µM (active) and the IC50 (cells [3]) was > 29.9 µM (inactive). For the same molecule, the EC50 (cells [4]) was > 29.9 µM (inactive).
In the case of `CC12CC3OS(=O)OC3CC3C4C(C(OCc5ccccc5)C31)C42` (stereo unspecified), the AC50 (Cytochrome P450 2C19) is reported as 0.251 µM (inconclusive).
In the case of `CCN(CC)C(=O)CSc1nc2c(sc(=S)n2-c2ccccc2)c(=O)n1-c1ccc(OC)cc1OC`, the IC50 [5] is reported as 51.9 µM (active).
With `CCOC(=O)c1c(NC(=O)CSc2nnc(CNC(=O)c3ccco3)n2C)sc2c1CCC2` the IC50 (Estrogen receptor) was > 50 µM (not active).
With `COc1ccc2cc3cc(C(=O)N4CCCCC4C)oc3nc2c1` (stereo unspecified) the IC50 (Fatty acid synthase [6]) was 2.52 µM (active), the IC50 (Fatty acid synthase [7]) was 2.81 µM (active) and the IC50 (cells [8]) was 35.1 µM (active). The CC50 [9] was 42.4 µM (active).
In the case of `CC(C)c1ccc2oc(-c3ccc(NC(=O)c4nc[nH]n4)cc3)nc2c1`, the EC50 [10] is reported as > 160 µM (inactive), the IC50 (cells [8]) is reported as 42.2 µM (active) and the CC50 [9] is reported as > 50 µM (active). For the same molecule, the EC50 [11] was 0.04 µM (active).
For `O=C(NC1CC1)c1cc2cc3ccccc3nc2s1`, the AC50 [12] was 45.7 µM (active).
In the case of `Cc1nnn(-c2nonc2N)c1C(=O)NNC(=O)c1ccc(Cl)c(Cl)c1`, the IC50 [1] is reported as > 29.9 µM (inactive), the EC50 [2] is reported as 5.05 µM (active) and the IC50 (cells [3]) is reported as > 29.9 µM (inactive). For the same molecule, the EC50 (cells [4]) was > 29.9 µM (inactive).
For `O=C(CCC1COc2ccccc2O1)NCC1COc2ccccc2O1` (stereo unspecified), the EC50 [13] was 1.77 µM (active).
With `O=C(CN1CCC(NC(=O)c2ccccc2)CC1)NCc1ccccc1F` the IC50 (Aminopeptidase N) was 39.3 µM (active).
In the case of `COCCN(C(=O)C(C)C)c1nnc(-c2cccc(C)c2)s1`, the IC50 (cells [8]) is reported as 37.4 µM (active) and the CC50 [9] is reported as > 50 µM (active).
In the case of `CNC(=S)Nc1sc2c(c1C(=O)OC)CCC2`, the IC50 [14] is reported as 1.48 µM (active).
With `O=P(Nc1ccccc1Cl)(c1ccccc1)c1nc2c(s1)CCCC2` (stereo unspecified) the EC50 [13] was 5.95 µM (active).
For `COC(=O)c1c(-c2ccc(C(C)(C)C)cc2)csc1NC(=O)C1C2CCC(O2)C1C(=O)O` (stereo unspecified), the IC50 (Aminopeptidase N) was 79.5 µM (active).
In the case of `COc1ccc(CN2C(=O)NC(=O)/C(=C/c3ccc([N+](=O)[O-])o3)C2=O)cc1`, the IC50 (Large T antigen) is reported as 71.7 µM (active) and the IC50 [14] is reported as 3.22 µM (active).
For `O=C(NCc1ccc2c(c1)OCO2)C1CCN(S(=O)(=O)c2cccs2)CC1`, the IC50 (Aminopeptidase N) was 26.7 µM (active).
In the case of `Nc1cccc(C2=Nc3cccc4cccc(c34)N2)c1`, the IC50 [14] is reported as 3 µM (active).
For `CC(=O)OC1CC(C)(C)N(OC(=O)c2ccc(N)cc2)C(C)(C)C1`, the IC50 (Estrogen receptor) was 26.3 µM (active).
With `COc1ccc(N2CCN(C(=O)CN(Cc3ccc(Cl)cc3)S(C)(=O)=O)CC2)cc1` the EC50 [13] was 11.3 µM (active).
In the case of `O=C(O)CCc1ccc(-c2cccs2)n1CCc1ccccc1`, the IC50 [1] is reported as 5.93 µM (active), the EC50 [2] is reported as 0.62 µM (active) and the IC50 (cells [3]) is reported as > 29.9 µM (inactive). For the same molecule, the EC50 (cells [4]) was > 29.9 µM (inactive).
With `O=C(CNCCc1ccccc1)N1CCc2ccccc2C1` the IC50 [1] was 5.52 µM (active), the EC50 [2] was 1.2 µM (active) and the IC50 (cells [3]) was > 29.9 µM (inactive). For the same molecule, the EC50 (cells [4]) was > 29.9 µM (inactive).
With `Cc1oc(-c2cccc(Cl)c2)nc1CN1CCC(C(=O)NCc2ccco2)CC1` the EC50 [13] was 5.8 µM (active).
With `O=[N+]([O-])c1ccc(NN=Cc2ccccc2O)nc1` the IC50 (Beta-galactosidase) was 46 µM (inactive).
With `O=[N+]([O-])c1ccc(N2CCCCC2)nc1` the AC50 [12] was 3.98 µM (active).
